In patent US20250082760A1 (priority 2020, published 2025):
Where a name gives a salt, the structure may show the parent alone.

Assay: stability (degradation test) in fresh rat plasma
Format: in vitro ADME
Conditions: for Sample Peak Average: rat, 5 μmol/ml
Method: Experimental sample: compound 5 prepared in Example 5; 5% glucose (Xi′an Jingxi Shuanghe Pharmaceutical Co., Ltd.); rat plasma (source: Animal Center, Department of Medicine, Xi′an Jiaotong University) Fresh plasma sample preparation: • a: Compound 5 prepared in Example 5 was dissolved in purified water to prepare solution A with a concentration of 10 mg/ml; 150 μl of solution A was added to 660 μl of preheated plasma (37° C.) to obtain solution B; • b: Solution B (5 μmol/ml) was stirred in a 37° C. water bath for a certain period of time (1 min, 2 min, 4 min, 8 min, 16 min, 30 min, 1 h, 2 h, 4 h) and 50 μl was sampled at each time point; • c: 50 μl of sampled solution) was added to 950 μl of methanol (0.1% AcH) to precipitate plasma proteins, resulting in mixture C; • d: The mixture C was vortexed for 1 s, centrifuged at 12000 r for 3 min, and the supernatant was taken for testing.
Liquid phase detection: take 10 μl of the supernatant after the above centrifugation into a sample for measurement.

CC(C)c1cccc(C(C)C)c1OC(=O)CC1(CN(C)C)CCCCC1 [Compound 5, 2,6-diisopropylphenyl 2-(1-((dimethylamino)methyl)cyclohexyl)acetate hydrochloride]
degradation / stability in fresh plasma (fresh rat plasma, 37° C., up to 4 h): not significantly degraded
Sample Peak Average (1 min): 203062103
Sample Peak Average (2 min): 181706084
Sample Peak Average (4 min): 161303805
Sample Peak Average (8 min): 178769005
Sample Peak Average (16 min): 189298224
Sample Peak Average (1 h): 230407155
Sample Peak Average (2 h): 260803581
Sample Peak Average (4 h): 246523592
